From PubChem BioAssay AID2060601 (Molecular Pharmacology Branch, DTP, NCI, 2025)

Tested on: 874868-142-R-J2-PDC complex spheroids, growth % test/control
Assay: Anticancer human tumor 874868-142-R-J2-PDC patient-derived head and neck squamous carcinoma cell line growth inhibition [CLK]
Conditions: for IC50: curve of first compound; for viability, T/C: stronger effect = lower value
Outline: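 Patient-derived tumor cells grown as complex spheroids with HUVEC endothelial cells and mesenchymal stem cells, treated with drug combinations. Concentrations descend in half-log steps from near clinical Cmax, or from 10 microM if Cmax unknown.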

[1] = second compound 0.0316 µM, first compound 0.0316 µM
[2] = second compound 0.0316 µM, first compound 0.1 µM
[3] = second compound 0.0316 µM, first compound 0.316 µM
[4] = second compound 0.0316 µM, first compound 1 µM
[5] = second compound 0.0316 µM, first compound 3.16 µM
[6] = second compound 0.0316 µM, first compound 10 µM
[7] = second compound 0.1 µM, first compound 0.0316 µM
[8] = second compound 0.1 µM, first compound 0.1 µM
[9] = second compound 0.1 µM, first compound 0.316 µM
[10] = second compound 0.1 µM, first compound 1 µM
[11] = second compound 0.1 µM, first compound 3.16 µM
[12] = second compound 0.1 µM, first compound 10 µM
[13] = second compound 0.316 µM, first compound 0.0316 µM
[14] = second compound 0.316 µM, first compound 0.1 µM
[15] = second compound 0.316 µM, first compound 0.316 µM
[16] = second compound 0.316 µM, first compound 1 µM
[17] = second compound 0.316 µM, first compound 3.16 µM
[18] = second compound 0.316 µM, first compound 10 µM
[19] = second compound 1 µM, first compound 0.0316 µM
[20] = second compound 1 µM, first compound 0.1 µM
[21] = second compound 1 µM, first compound 0.316 µM
[22] = second compound 1 µM, first compound 1 µM
[23] = second compound 1 µM, first compound 3.16 µM
[24] = second compound 1 µM, first compound 10 µM
[25] = second compound 3.16 µM, first compound 0.0316 µM
[26] = second compound 3.16 µM, first compound 0.1 µM
[27] = second compound 3.16 µM, first compound 0.316 µM
[28] = second compound 3.16 µM, first compound 1 µM
[29] = second compound 3.16 µM, first compound 3.16 µM
[30] = second compound 3.16 µM, first compound 10 µM
[31] = second compound 10 µM, first compound 0.0316 µM
[32] = second compound 10 µM, first compound 0.1 µM
[33] = second compound 10 µM, first compound 0.316 µM
[34] = second compound 10 µM, first compound 1 µM
[35] = second compound 10 µM, first compound 3.16 µM
[36] = second compound 10 µM, first compound 10 µM
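Note: spheroids exposed to the compounds for 7 days.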
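Throughout, for viability, T/C: 100% = DMSO vehicle control viability.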

Work on `C=CC(=O)Nc1cc(Nc2nccc(-c3cn(C)c4ccccc34)n2)c(OC)cc1N(C)CCN(C)C` + CNC(=O)c1ccc(Nc2nc(OC3CCCC3)c3c(-c4ccc5nc(C)oc5c4)c[nH]c3n2)c(OC)c1 yielded an IC50 (second compound 0.0316 µM) of 35.9 nM, an IC50 (second compound 0.1 µM) of 22.2 nM and an IC50 (second compound 0.316 µM) of 4.75 nM. For the same compound, the IC50 (second compound 1 µM) was under 0.949 nM, the IC50 (second compound 3.16 µM) was under 0.949 nM and the IC50 (second compound 10 µM) was under 0.949 nM. It also gave a viability, T/C (second compound 0.0316 µM, first compound 0.000949 µM) of 101%, a viability, T/C (second compound 0.0316 µM, first compound 0.003 µM) of 115% and a viability, T/C (second compound 0.0316 µM, first compound 0.00949 µM) of 77.4%. It also gave a viability, T/C (second compound 0.0316 µM, first compound 0.03 µM) of 51.3%, a viability, T/C (second compound 0.0316 µM, first compound 0.0949 µM) of 45.7% and a viability, T/C (second compound 0.0316 µM, first compound 0.3 µM) of 23.9%. The viability, T/C (second compound 0.1 µM, first compound 0.000949 µM) was 103%, the viability, T/C (second compound 0.1 µM, first compound 0.003 µM) was 75% and the viability, T/C (second compound 0.1 µM, first compound 0.00949 µM) was 57.5%. It also gave a viability, T/C (second compound 0.1 µM, first compound 0.03 µM) of 52.4%, a viability, T/C (second compound 0.1 µM, first compound 0.0949 µM) of 30.6% and a viability, T/C (second compound 0.1 µM, first compound 0.3 µM) of 19.8%. The viability, T/C (second compound 0.316 µM, first compound 0.000949 µM) was 64.4%, the viability, T/C (second compound 0.316 µM, first compound 0.003 µM) was 48.9% and the viability, T/C (second compound 0.316 µM, first compound 0.00949 µM) was 48%. It also gave a viability, T/C (second compound 0.316 µM, first compound 0.03 µM) of 38.5%, a viability, T/C (second compound 0.316 µM, first compound 0.0949 µM) of 24.8% and a viability, T/C (second compound 0.316 µM, first compound 0.3 µM) of 24.3%. It also gave a viability, T/C (second compound 1 µM, first compound 0.000949 µM) of 48.9%, a viability, T/C (second compound 1 µM, first compound 0.003 µM) of 40.5% and a viability, T/C (second compound 1 µM, first compound 0.00949 µM) of 38.6%. For the same compound, the viability, T/C (second compound 1 µM, first compound 0.03 µM) was 32.5%, the viability, T/C (second compound 1 µM, first compound 0.0949 µM) was 26.4% and the viability, T/C (second compound 1 µM, first compound 0.3 µM) was 14.4%. For the same compound, the viability, T/C (second compound 3.16 µM, first compound 0.000949 µM) was 43.4%, the viability, T/C (second compound 3.16 µM, first compound 0.003 µM) was 39.6% and the viability, T/C (second compound 3.16 µM, first compound 0.00949 µM) was 38%. The viability, T/C (second compound 3.16 µM, first compound 0.03 µM) was 31.5%, the viability, T/C (second compound 3.16 µM, first compound 0.0949 µM) was 25.5% and the viability, T/C (second compound 3.16 µM, first compound 0.3 µM) was 20%. It also gave a viability, T/C (second compound 10 µM, first compound 0.000949 µM) of 41.8%, a viability, T/C (second compound 10 µM, first compound 0.003 µM) of 37.7% and a viability, T/C (second compound 10 µM, first compound 0.00949 µM) of 32.7%. It also gave a viability, T/C (second compound 10 µM, first compound 0.03 µM) of 32.3%, a viability, T/C (second compound 10 µM, first compound 0.0949 µM) of 28% and a viability, T/C (second compound 10 µM, first compound 0.3 µM) of 18.3%.

`CC(CO)NC(=O)c1cc(-c2ccc(Cl)cc2)nn(-c2cnn(C)c2)c1=O` (stereo not drawn) + CNC(=O)c1ccc(Nc2nc(OC3CCCC3)c3c(-c4ccc5nc(C)oc5c4)c[nH]c3n2)c(OC)c1 gave an IC50 (second compound 0.0316 µM) of over 10000 nM, an IC50 (second compound 0.1 µM) of over 10000 nM and an IC50 (second compound 0.316 µM) of over 10000 nM. For the same compound, the IC50 (second compound 1 µM) was under 31.6 nM, the IC50 (second compound 3.16 µM) was under 31.6 nM and the IC50 (second compound 10 µM) was under 31.6 nM. It also gave a viability, T/C [1] of 98%, a viability, T/C [2] of 90.1% and a viability, T/C [3] of 90.2%. The viability, T/C [4] was 120%, the viability, T/C [5] was 125% and the viability, T/C [6] was 104%. For the same compound, the viability, T/C [7] was 82.2%, the viability, T/C [8] was 90% and the viability, T/C [9] was 82.6%. It also gave a viability, T/C [10] of 85.9%, a viability, T/C [11] of 94.8% and a viability, T/C [12] of 109%. The viability, T/C [13] was 50.6%, the viability, T/C [14] was 51.4% and the viability, T/C [15] was 56.2%. The viability, T/C [16] was 48.5%, the viability, T/C [17] was 58.5% and the viability, T/C [18] was 67.4%. The viability, T/C [19] was 52.4%, the viability, T/C [20] was 38.1% and the viability, T/C [21] was 34.9%. It also gave a viability, T/C [22] of 43.1%, a viability, T/C [23] of 50.8% and a viability, T/C [24] of 50.7%. It also gave a viability, T/C [25] of 40.3%, a viability, T/C [26] of 36.8% and a viability, T/C [27] of 44.3%. For the same compound, the viability, T/C [28] was 41.2%, the viability, T/C [29] was 52.4% and the viability, T/C [30] was 44.4%. The viability, T/C [31] was 34.7%, the viability, T/C [32] was 36.4% and the viability, T/C [33] was 36.1%. For the same compound, the viability, T/C [34] was 33.7%, the viability, T/C [35] was 50.9% and the viability, T/C [36] was 42.2%.

Compound `CCN1CCN(Cc2ccc(Nc3ncc(F)c(-c4cc(F)c5nc(C)n(C(C)C)c5c4)n3)nc2)CC1` + CNC(=O)c1ccc(Nc2nc(OC3CCCC3)c3c(-c4ccc5nc(C)oc5c4)c[nH]c3n2)c(OC)c1 has an IC50 (second compound 0.0316 µM) of over 1000 nM, an IC50 (second compound 0.1 µM) of over 1000 nM and an IC50 (second compound 0.316 µM) of over 1000 nM. It also gave an IC50 (second compound 1 µM) of under 3.16 nM, an IC50 (second compound 3.16 µM) of under 3.16 nM and an IC50 (second compound 10 µM) of under 3.16 nM. For the same compound, the viability, T/C (second compound 0.0316 µM, first compound 0.00316 µM) was 96.9%, the viability, T/C (second compound 0.0316 µM, first compound 0.01 µM) was 103% and the viability, T/C [1] was 95.2%. The viability, T/C [2] was 100%, the viability, T/C [3] was 121% and the viability, T/C [4] was 113%. It also gave a viability, T/C (second compound 0.1 µM, first compound 0.00316 µM) of 106%, a viability, T/C (second compound 0.1 µM, first compound 0.01 µM) of 91.8% and a viability, T/C [7] of 94.5%. It also gave a viability, T/C [8] of 81.6%, a viability, T/C [9] of 109% and a viability, T/C [10] of 113%. The viability, T/C (second compound 0.316 µM, first compound 0.00316 µM) was 59.4%, the viability, T/C (second compound 0.316 µM, first compound 0.01 µM) was 62.7% and the viability, T/C [13] was 56.2%. The viability, T/C [14] was 64.6%, the viability, T/C [15] was 84.8% and the viability, T/C [16] was 99.9%. For the same compound, the viability, T/C (second compound 1 µM, first compound 0.00316 µM) was 46.2%, the viability, T/C (second compound 1 µM, first compound 0.01 µM) was 44.8% and the viability, T/C [19] was 44.4%. It also gave a viability, T/C [20] of 49.3%, a viability, T/C [21] of 67.9% and a viability, T/C [22] of 68.7%. For the same compound, the viability, T/C (second compound 3.16 µM, first compound 0.00316 µM) was 41.9%, the viability, T/C (second compound 3.16 µM, first compound 0.01 µM) was 50.8% and the viability, T/C [25] was 41.5%. For the same compound, the viability, T/C [26] was 38.5%, the viability, T/C [27] was 50.8% and the viability, T/C [28] was 72.5%. For the same compound, the viability, T/C (second compound 10 µM, first compound 0.00316 µM) was 46.2%, the viability, T/C (second compound 10 µM, first compound 0.01 µM) was 40.5% and the viability, T/C [31] was 56%. For the same compound, the viability, T/C [32] was 45.6%, the viability, T/C [33] was 66.8% and the viability, T/C [34] was 71.2%.

Compound `Nc1ccccc1NC(=O)c1ccc(CNC(=O)OCc2cccnc2)cc1` + CNC(=O)c1ccc(Nc2nc(OC3CCCC3)c3c(-c4ccc5nc(C)oc5c4)c[nH]c3n2)c(OC)c1 has an IC50 (second compound 0.0316 µM) of 7270 nM, an IC50 (second compound 0.1 µM) of 7260 nM and an IC50 (second compound 0.316 µM) of 4800 nM. For the same compound, the IC50 (second compound 1 µM) was 252 nM, the IC50 (second compound 3.16 µM) was 3950 nM and the IC50 (second compound 10 µM) was 3440 nM. For the same compound, the viability, T/C [1] was 107%, the viability, T/C [2] was 87.5% and the viability, T/C [3] was 110%. It also gave a viability, T/C [4] of 114%, a viability, T/C [5] of 109% and a viability, T/C [6] of 28.7%. For the same compound, the viability, T/C [7] was 82.6%, the viability, T/C [8] was 73.7% and the viability, T/C [9] was 94.4%. It also gave a viability, T/C [10] of 109%, a viability, T/C [11] of 101% and a viability, T/C [12] of 33.6%. For the same compound, the viability, T/C [13] was 61.5%, the viability, T/C [14] was 61.4% and the viability, T/C [15] was 67.8%. The viability, T/C [16] was 79.9%, the viability, T/C [17] was 88.9% and the viability, T/C [18] was 11.3%. It also gave a viability, T/C [19] of 42.4%, a viability, T/C [20] of 45% and a viability, T/C [21] of 52.1%. For the same compound, the viability, T/C [22] was 66.9%, the viability, T/C [23] was 76.6% and the viability, T/C [24] was 11.9%. It also gave a viability, T/C [25] of 49.2%, a viability, T/C [26] of 47% and a viability, T/C [27] of 56.9%. The viability, T/C [28] was 71.8%, the viability, T/C [29] was 72.1% and the viability, T/C [30] was 10.8%. It also gave a viability, T/C [31] of 41.8%, a viability, T/C [32] of 44% and a viability, T/C [33] of 49%. For the same compound, the viability, T/C [34] was 67.3%, the viability, T/C [35] was 69.2% and the viability, T/C [36] was 3.57%.
